Test results: US10921327B2, “Probes for quantitative imaging of thiols in various environments” (Baylor College of Medicine, priority 2014, dated 2021)
Where two headings read alike, the source gives them in different places.

Tests used:
[1] = Equilibrium (dissociation constant) of probe and GSH reaction, UV-Vis/fluorescence; assay type: binding
Description: Applicants also determined Keq between TQ Green and GSH and the relationship of the ratiometric change as a function of GSH concentration. Kd′ is the apparent dissociation constant for the reaction between TQ Green and GSH. The following equation can be derived:
Plotting (R−Rmin)/(Rmax−R) as a function of GSH concentration afforded a superb linear relationship with r^2=0.999 (FIGS. 6-7).
TQ Green was dissolved in PBS buffer (10 mM, pH 7.4) containing 1% DMSO with concentration at 32 μM. GSH was dissolved in the same PBS buffer with concentration from 0-80 mM. Above solutions were mixed at 1:1 ratio. All solutions were protected with nitrogen and stored in glove box to prevent any oxygen entering the solution. Samples of all solutions were taken out at 1, 18, 72, and 144 hours after mixing. UV-Vis and fluorescence were measured for all solutions.
Compounds 3b-d were dissolved in DMSO (10 mM) and 1 eq of 2 M β-mercaptoethanol (BME) was added. Compounds 3a and TQ Green were dissolved in PBS buffer (10 mM, pH 7.4) with 1% DMSO. GSH solution was added to reach a final concentration of 80 mM with compound 3a at 10 μM and TQ Green at 16 μM, respectively. All solutions were then monitored continuously with UV-Vis and fluorimeter for 2 hours (Table 1).

[2] = Reaction kinetics and reversibility of probe with GSH (UV-Vis)
Description: The reaction between TQ Green and GSH is reversible.
The second-order rate constant between TQ Green and GSH is 0.150±0.001M^−1·s^−1. There were no appreciable Abs changes observed after 20 minutes. Following a pause for another 80 minutes to ensure that the equilibrium between TQ Green and GSH was fully established, Applicants added two equivalents of an irreversible Michael acceptor (5,6-dihydro-2H-pyran-2-one) to deplete all the GSH in solution (FIG. 4A).
GSH in PBS was added to a solution of TQ Green in PBS buffer (10 mM, pH 7.4) containing 1% DMSO. The final concentrations of GSH and TQ Green were 10 mM and 16 μM, respectively. The solutions were then monitored continuously with UV-Vis spectrometer (FIGS. 21A-D).

- Kd ([1]; deduced from Kd′ and absorption values at 488 nm, read-out: Kd (equilibrium dissociation constant)): 1.6 mM
- Kd ([1]; reaction with various concentration of GSH in water/PBS pH 7.4, based on UV-Vis, read-out: Kd′ observed (apparent) dissociation constant): 14.8 mM
Compound: CCN(CC)c1ccc2cc(/C=C/C(=O)c3ccc(C(=O)O)cc3Br)c(=O)oc2c1 [TQ Green]
- Time to reach 95% of conversion ([2]; 10 mM GSH in PBS, room temperature, TQ Green 16 μM, probe 3a 10 μM): ~30 min
- Time to establish equilibrium with GSH ([2]; 37° C., intracellular environment, extrapolated): 15 to 30 min
- Second-Order Rate Constant ([2]; TQ Green and GSH): 0.150 ± 0.001 M⁻¹ s⁻¹
